Data reported in patent publication US8399681B2, “Substituted aminothiazolone indazoles as estrogen related receptor-alpha modulators” (Janssen Pharmaceutica NV, priority 2009, dated 2013).

biological target: T1, ERR1 (also known as ERR-α or ERR-1) (Homo sapiens, UniProt P11474); assay: TR-FRET assay (disruption of co-activator peptide binding); type: biochemical; conditions: 6His-tagged ERR1 LBD, GST-hSRC2 co-activator polypeptide; average of 3 independent experiments
T1 sequence (P11474 193-421 limits assumed): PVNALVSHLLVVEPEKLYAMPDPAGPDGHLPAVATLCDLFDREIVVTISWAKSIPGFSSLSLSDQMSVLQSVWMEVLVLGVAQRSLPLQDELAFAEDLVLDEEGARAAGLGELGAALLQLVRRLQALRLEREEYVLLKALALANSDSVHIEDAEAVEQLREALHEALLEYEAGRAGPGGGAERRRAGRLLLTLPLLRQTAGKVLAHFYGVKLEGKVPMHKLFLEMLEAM
How it was run: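 Compound-induced loss of co-activator recruitment, read by time-resolved FRET (excitation 340 nm; 615 and 665 nm emission) after 4-18 h at 25 °C. Reagents: 6 nM ERR1LBD, 6 nM GST-SRC-2, 30 nM Eu cryptate, 7.5 nM XL665, pH 8 Tris buffer. Values: hyperbolic fits averaged over 3 independent runs.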

EC50 [µM]	SMILES
0.036	O=C1N=C(N2CCC(c3nnn[nH]3)CC2)S/C1=C\c1ccc2c(cnn2Cc2ccc(C(F)(F)F)cc2C(F)(F)F)c1 [Example 109, 5-[1-(2,4-Bis-trifluoromethyl-benzyl)-1H-indazol-5-ylmethylene]-2-[4-(1H-tetrazol-5-yl)piperidin-1-yl]-thiazol-4-one]
0.0186	O=C1N=C(N2CCC(c3nnn[nH]3)CC2)S/C1=C\c1ccc2c(cnn2Cc2ccc(Cl)cc2C(F)(F)F)c1 [Example 110, 5-[1-(4-Chloro-2-trifluoromethyl-benzyl)-1H-indazol-5-ylmethylene]-2-[4-(1H-tetrazol-5-yl)-piperidin-1-yl]-thiazol-4-one]
0.0069	CS(=O)(=O)NC1CCN(C2=NC(=O)/C(=C/c3ccc4c(cnn4Cc4ccc(Cl)cc4C(F)(F)F)c3)S2)CC1 [Example 111, N-(1-{5-[1-(4-Chloro-2-trifluoromethyl-benzyl)-1H-indazol-5-ylmethylene]-4-oxo-4,5-dihydro-thiazol-2-yl}-piperidin-4-yl)-methanesulfonamide]
0.029	COC1CCN(C2=NC(=O)/C(=C/c3ccc4c(cnn4Cc4ccc(Cl)cc4C(F)(F)F)c3)S2)CC1 [Example 112, 5-[1-(4-Chloro-2-trifluoromethyl-benzyl)-1H-indazol-5-ylmethylene]-2-(4-methoxy-piperidin-1-yl)-thiazol-4-one]
0.014	COC1CN(C2=NC(=O)/C(=C/c3ccc4c(cnn4Cc4ccc(Cl)cc4C(F)(F)F)c3)S2)C1 [Example 113, 5-[1-(4-Chloro-2-trifluoromethyl-benzyl)-1H-indazol-5-ylmethylene]-2-(3-methoxy-azetidin-1-yl)-thiazol-4-one]
0.013	O=C1CCN(C2=NC(=O)/C(=C/c3ccc4c(cnn4Cc4ccc(Cl)cc4C(F)(F)F)c3)S2)CCN1 [Example 114, 1-{5-[1-(4-Chloro-2-trifluoromethyl-benzyl)-1H-indazol-5-ylmethylene]-4-oxo-4,5-dihydro-thiazol-2-yl}-[1,4]diazepan-5-one]
0.0083	O=C(O)CN1CCN(C2=NC(=O)/C(=C/c3ccc4c(cnn4Cc4ccc(Cl)cc4C(F)(F)F)c3)S2)CC1 [Example 117]
0.0073	O=C1CCN(C2=NC(=O)/C(=C/c3ccc4c(cnn4Cc4ccc(C(F)(F)F)cc4C(F)(F)F)c3)S2)CCN1 [Example 118, 1-{5-[1-(2,4-Bis-trifluoromethyl-benzyl)-1H-indazol-5-ylmethylene]-4-oxo-4,5-dihydro-thiazol-2-yl}-[1,4]diazepan-5-one]
0.014	O=C(O)CN1CCN(C2=NC(=O)/C(=C/c3ccc4c(cnn4Cc4ccc(C(F)(F)F)cc4C(F)(F)F)c3)S2)CC1 [Example 119]
0.027	CS(=O)(=O)NC1CCN(C2=NC(=O)/C(=C/c3ccc4c(cnn4Cc4ccc(C(F)(F)F)cc4C(F)(F)F)c3)S2)CC1 [Example 120, N-(1-{5-[1-(2,4-Bis-trifluoromethyl-benzyl)-1H-indazol-5-ylmethylene]-4-oxo-4,5-dihydro-thiazol-2-yl}-piperidin-4-yl)-methanesulfonamide]
0.0253	O=C1N=C(N2CCN(C3CC3)CC2)S/C1=C\c1ccc2c(cnn2Cc2ccc(Cl)cc2C(F)(F)F)c1 [Example 121, 5-[1-(4-Chloro-2-trifluoromethyl-benzyl)-1H-indazol-5-ylmethylene]-2-(4-cyclopropyl-piperazin-1-yl)-thiazol-4-one]
0.0418	O=C1N=C(N2CCN(C3CC3)CC2)S/C1=C\c1ccc2c(cnn2Cc2ccc(C(F)(F)F)cc2C(F)(F)F)c1 [Example 122, 5-[1-(2,4-Bis-trifluoromethyl-benzyl)-1H-indazol-5-ylmethylene]-2-(4-cyclopropyl-piperazin-1-yl)-thiazol-4-one]
0.009	CC[C@H]1CN(C2=NC(=O)/C(=C/c3ccc4c(cnn4Cc4ccc(C(F)(F)F)cc4C(F)(F)F)c3)S2)CCN1 [Example 124, 5-[1-(2,4-Bis-trifluoromethyl-benzyl)-1H-indazol-5-ylmethylene]-2-(3-ethyl-piperazin-1-yl)-thiazol-4-one]
0.024	O=C1N=C(N2CCCO2)S/C1=C\c1ccc2c(cnn2Cc2ccc(Cl)cc2C(F)(F)F)c1 [Example 126, 5-[1-(4-Chloro-2-trifluoromethyl-benzyl)-1H-indazol-5-ylmethylene]-2-isoxazolidin-2-yl-thiazol-4-one]
0.029	CCOC(=O)CN1CCN(C2=NC(=O)/C(=C/c3ccc4c(cnn4Cc4ccc(Cl)cc4C(F)(F)F)c3)S2)CC1 [Example 127]
0.032	CCOC(=O)N1CCCN(C2=NC(=O)/C(=C/c3ccc4c(cnn4Cc4ccc(Cl)cc4C(F)(F)F)c3)S2)CC1 [Example 128, 4-{5-[1-(4-Chloro-2-trifluoromethyl-benzyl)-1H-indazol-5-ylmethylene]-4-oxo-4,5-dihydro-thiazol-2-yl}-[1,4]diazepane-1-carboxylic acid ethyl ester]
0.028	CCOC(=O)N1CCCN(C2=NC(=O)/C(=C/c3ccc4c(cnn4Cc4ccc(C(F)(F)F)cc4C(F)(F)F)c3)S2)CC1 [Example 129, 4-{5-[1-(2,4-Bis-trifluoromethyl-benzyl)-1H-indazol-5-ylmethylene]-4-oxo-4,5-dihydro-thiazol-2-yl}-[1,4]diazepane-1-carboxylic acid ethyl ester]
0.032	COC(=O)COC1CCN(C2=NC(=O)/C(=C/c3ccc4c(cnn4Cc4ccc(Cl)cc4C(F)(F)F)c3)S2)CC1 [Example 130]
0.0078	O=C(O)COC1CCN(C2=NC(=O)/C(=C/c3ccc4c(cnn4Cc4ccc(Cl)cc4C(F)(F)F)c3)S2)CC1 [Example 131]
0.0107	O=C1N=C(N2CCN[C@@H](CO)C2)S/C1=C\c1ccc2c(cnn2Cc2ccc(Cl)cc2C(F)(F)F)c1 [Example 132, 5-[1-(4-Chloro-2-trifluoromethyl-benzyl)-1H-indazol-5-ylmethylene]-2-(3-(R)-hydroxymethyl-piperazin-1-yl)-thiazol-4-one]
0.0041	O=C1N=C(N2CCCN(CCF)CC2)S/C1=C\c1ccc2c(cnn2Cc2ccc(Cl)cc2C(F)(F)F)c1 [Example 133, 5-[1-(4-Chloro-2-trifluoromethyl-benzyl)-1H-indazol-5-ylmethylene]-2-[4-(2-fluoro-ethyl)-[1,4]diazepan-1-yl]-thiazol-4-one]
0.005	CS(=O)(=O)N1CCCN(C2=NC(=O)/C(=C/c3ccc4c(cnn4Cc4ccc(Cl)cc4C(F)(F)F)c3)S2)CC1 [Example 134, 5-[1-(4-Chloro-2-trifluoromethyl-benzyl)-1H-indazol-5-ylmethylene]-2-(4-methanesulfonyl-[1,4]diazepan-1-yl)-thiazol-4-one]
0.052	O=C1N=C(N2CCCN(CC(F)(F)F)CC2)S/C1=C\c1ccc2c(cnn2Cc2ccc(Cl)cc2C(F)(F)F)c1 [Example 135, 5-[1-(4-Chloro-2-trifluoromethyl-benzyl)-1H-indazol-5-ylmethylene]-2-[4-(2,2,2-trifluoro-ethyl)-[1,4]diazepan-1-yl]-thiazol-4-one]
0.034	O=C1N=C(N2CCCN(C(=O)OCC(F)(F)F)CC2)S/C1=C\c1ccc2c(cnn2Cc2ccc(Cl)cc2C(F)(F)F)c1 [Example 136, 4-{5-[1-(4-Chloro-2-trifluoromethyl-benzyl)-1H-indazol-5-ylmethylene]-4-oxo-4,5-dihydro-thiazol-2-yl}[1,4]diazepane-1-carboxylic acid 2,2,2-trifluoro-ethyl ester]
0.014	O=C1N=C(N2CCC(C(=O)O)C2)S/C1=C\c1ccc2c(cnn2Cc2ccc(Cl)cc2C(F)(F)F)c1 (stereo not drawn) [Example 137, 1-{5-[1-(4-Chloro-2-trifluoromethyl-benzyl)-1H-indazol-5-ylmethylene]-4-oxo-4,5-dihydro-thiazol-2-yl}-pyrrolidine-3-carboxylic acid]
0.019	NCC(=O)N1CCCN(C2=NC(=O)/C(=C/c3ccc4c(cnn4Cc4ccc(Cl)cc4C(F)(F)F)c3)S2)CC1 [Example 138, 2-[4-(2-Amino-acetyl)-[1,4]diazepan-1-yl]-5-[1-(4-chloro-2-trifluoromethyl-benzyl)-1H-indazol-5-ylmethylene]-thiazol-4-one]
0.014	O=C1N=C(N2CC3COC(=O)C3C2)S/C1=C\c1ccc2c(cnn2Cc2ccc(Cl)cc2C(F)(F)F)c1 (stereo not drawn) [Example 144, 5-{5-[1-(4-Chloro-2-trifluoromethyl-benzyl)-1H-indazol-5-ylmethylene]-4-oxo-4,5-dihydro-thiazol-2-yl}-hexahydro-furo[3,4-c]pyrrol-1-one]
0.021	O=C(O)CC1CCN(C2=NC(=O)/C(=C/c3ccc4c(cnn4Cc4ccc(Cl)cc4C(F)(F)F)c3)S2)C1 (stereo not drawn) [Example 145, (1-{5-[1-(4-Chloro-2-trifluoromethyl-benzyl)-1H-indazol-5-ylmethylene]-4-oxo-4,5-dihydro-thiazol-2-yl}-pyrrolidin-3-yl)-acetic acid]
0.014	O=C1N=C(N2CCS(=O)(=O)CC2)S/C1=C\c1ccc2c(cnn2Cc2ccc(Cl)cc2C(F)(F)F)c1 [Example 146, 5-[1-(4-Chloro-2-trifluoromethyl-benzyl)-1H-indazol-5-ylmethylene]-2-(1,1-dioxidothiomorpholin-4-yl)-thiazol-4-one]

SMILES	EC50 [µM]
CC(C)(C)OC[C@@H]1CN(C2=NC(=O)/C(=C/c3ccc4c(cnn4Cc4ccc(C(F)(F)F)cc4C(F)(F)F)c3)S2)CCO1 [Example 143, 5-({1-[2,4-Bis(trifluoromethyl)benzyl]-1H-indazol-5-yl}methylidene)-2-[2(S)-(tert-butoxymethyl)morpholin-4-yl]-1,3-thiazol-4(5H)-one]	0.056
